Measurements reported in publication PMC9127186, “Molecular Basis Underlying Hepatobiliary and Renal Excretion of Phenolic Acids of Salvia miltiorrhiza Roots (Danshen)” (Frontiers in Pharmacology, 2022).

Experiments:
human OATP2B1 = target: T1, human OATP2B1 (Homo sapiens, UniProt O94956); experiment: Cellular transport assay, HEK-293 cells expressing human OATP2B1; conditions: positive substrate 20 μM, 10 min; human OATP2B1
T1 sequence (O94956 1-709): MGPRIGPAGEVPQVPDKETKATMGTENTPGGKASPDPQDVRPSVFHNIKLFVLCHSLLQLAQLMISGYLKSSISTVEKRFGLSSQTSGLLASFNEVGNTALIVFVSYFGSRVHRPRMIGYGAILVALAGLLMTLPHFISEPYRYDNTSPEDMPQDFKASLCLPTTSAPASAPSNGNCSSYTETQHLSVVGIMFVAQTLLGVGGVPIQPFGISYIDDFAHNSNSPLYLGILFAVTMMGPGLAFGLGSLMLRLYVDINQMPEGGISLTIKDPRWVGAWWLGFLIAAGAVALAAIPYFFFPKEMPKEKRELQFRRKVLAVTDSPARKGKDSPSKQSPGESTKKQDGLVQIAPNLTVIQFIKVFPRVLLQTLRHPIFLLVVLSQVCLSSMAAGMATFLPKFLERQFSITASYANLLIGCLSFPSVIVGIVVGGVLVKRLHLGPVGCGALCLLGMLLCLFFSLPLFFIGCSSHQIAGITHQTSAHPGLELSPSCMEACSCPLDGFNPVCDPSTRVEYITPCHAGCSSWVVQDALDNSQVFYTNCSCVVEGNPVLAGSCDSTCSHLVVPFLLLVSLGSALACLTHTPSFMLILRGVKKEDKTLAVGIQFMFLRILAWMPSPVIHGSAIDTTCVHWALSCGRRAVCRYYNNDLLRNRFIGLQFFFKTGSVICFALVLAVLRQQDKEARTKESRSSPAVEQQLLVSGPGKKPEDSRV

human OAT3 = target: T2, human OAT3 (Homo sapiens, UniProt Q8TCC7); experiment: Cellular transport assay, HEK-293 cells expressing human OAT3; conditions: positive substrate 20 μM, 10 min; human OAT3
T2 sequence (Q8TCC7 1-542): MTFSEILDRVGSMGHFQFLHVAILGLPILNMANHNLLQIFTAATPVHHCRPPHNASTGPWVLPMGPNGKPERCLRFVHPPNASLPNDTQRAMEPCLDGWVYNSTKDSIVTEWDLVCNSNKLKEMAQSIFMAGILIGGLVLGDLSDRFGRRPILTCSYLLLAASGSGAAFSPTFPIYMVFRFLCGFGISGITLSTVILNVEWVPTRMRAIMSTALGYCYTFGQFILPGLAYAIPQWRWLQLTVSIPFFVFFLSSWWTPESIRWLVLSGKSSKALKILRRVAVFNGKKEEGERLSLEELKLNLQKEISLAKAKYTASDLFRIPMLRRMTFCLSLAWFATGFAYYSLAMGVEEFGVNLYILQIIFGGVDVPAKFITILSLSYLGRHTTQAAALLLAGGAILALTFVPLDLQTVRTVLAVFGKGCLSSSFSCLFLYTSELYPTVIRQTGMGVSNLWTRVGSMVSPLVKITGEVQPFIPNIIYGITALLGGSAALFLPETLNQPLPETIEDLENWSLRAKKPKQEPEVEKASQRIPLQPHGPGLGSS
Description: (§1) Briefly, HEK-293 cells were grown, at 37°C and 5% CO2, in Dulbecco’s modified Eagle’s medium, which was fortified with 10% fetal bovine serum, 1% minimal essential medium nonessential amino acids, and 1% antibiotic-antimycotic solution. A day before transfection, cells were seeded onto 24-well poly-D-lysine-coated plates at a density of 2 × 10^5 cells per well. After incubation at 37°C and 5% CO2 for 24 h, the expression plasmid and the empty vector were introduced separately into the HEK293 cells with Lipofectamine 2000 transfection reagent (Invitrogen, Carlsbad, CA, United States), according to the manufacturer’s protocol to yield transporter-expressing cells and mock cells, respectively.
(§2) Transport studies were performed 48 h after the transfection. […] Differential uptake between the transfected cells and mock cells was defined as net transport ratio (TransportTC/TransportMC ratio), where TransportTC and TransportMC are the transport rates of a test Danshen compound into transfected and mock cells, respectively. […] The determination was performed under linear uptake conditions by incubation for 5 min. Table 1 summarizes the final concentrations of the test Danshen compounds for different transporters. All the incubation samples were analyzed by liquid chromatography/mass spectrometry.
(§3) GraFit software (version 5.0; Erithacus Software Ltd, Surrey, United Kingdom) was used to determine the K m and V max values by nonlinear regression analysis of initial transport rates as a function of substrate concentration.

human OAT4 = target: T3, human OAT4 (Homo sapiens, UniProt Q9NSA0); experiment: Cellular transport assay, HEK-293 cells expressing human OAT4; conditions: positive substrate 20 μM, 10 min; human OAT4
T3 sequence (Q9NSA0 1-550): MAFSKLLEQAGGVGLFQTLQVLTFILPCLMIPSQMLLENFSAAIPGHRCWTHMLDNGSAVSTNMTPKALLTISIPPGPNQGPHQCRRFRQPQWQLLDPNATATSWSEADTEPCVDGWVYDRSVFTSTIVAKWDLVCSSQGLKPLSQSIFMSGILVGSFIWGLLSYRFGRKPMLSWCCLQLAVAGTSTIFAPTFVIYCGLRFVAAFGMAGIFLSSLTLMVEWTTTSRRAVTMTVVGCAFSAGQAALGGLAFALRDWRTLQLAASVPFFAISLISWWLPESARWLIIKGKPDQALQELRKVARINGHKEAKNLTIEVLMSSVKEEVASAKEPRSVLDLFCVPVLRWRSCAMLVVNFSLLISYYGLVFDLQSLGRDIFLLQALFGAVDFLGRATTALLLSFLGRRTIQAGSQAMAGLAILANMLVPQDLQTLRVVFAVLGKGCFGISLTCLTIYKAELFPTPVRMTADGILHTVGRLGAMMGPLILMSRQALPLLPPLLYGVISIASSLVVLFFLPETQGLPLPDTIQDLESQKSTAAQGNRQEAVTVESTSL
Description: as §1, §2, §3

rat Oat3 = target: T4, rat Oat3 (Rattus norvegicus, UniProt Q9R1U7); experiment: Cellular transport assay, HEK-293 cells expressing rat Oat3; conditions: positive substrate 20 μM, 10 min; rat Oat3
T4 sequence (Q9R1U7 1-536): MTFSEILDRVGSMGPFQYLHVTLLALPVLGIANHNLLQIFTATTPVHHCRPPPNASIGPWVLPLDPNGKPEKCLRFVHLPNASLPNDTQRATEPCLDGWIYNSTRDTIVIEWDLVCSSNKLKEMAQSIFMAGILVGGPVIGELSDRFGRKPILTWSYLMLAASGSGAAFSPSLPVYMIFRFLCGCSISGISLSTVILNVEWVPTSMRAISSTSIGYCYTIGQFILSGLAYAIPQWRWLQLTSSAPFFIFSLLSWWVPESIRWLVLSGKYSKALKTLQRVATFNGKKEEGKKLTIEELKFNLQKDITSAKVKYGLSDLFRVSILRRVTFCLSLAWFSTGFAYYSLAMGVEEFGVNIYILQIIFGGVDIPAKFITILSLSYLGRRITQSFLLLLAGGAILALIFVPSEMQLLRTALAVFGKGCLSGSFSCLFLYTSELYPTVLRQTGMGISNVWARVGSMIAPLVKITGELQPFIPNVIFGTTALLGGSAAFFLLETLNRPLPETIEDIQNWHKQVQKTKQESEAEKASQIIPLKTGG
Description: as §1, §2, §3

human NTCP = target: T5, human NTCP (Homo sapiens, UniProt Q14973); experiment: Cellular transport assay, HEK-293 cells expressing human NTCP; conditions: positive substrate 20 μM, 10 min; human NTCP
T5 sequence (Q14973 1-349): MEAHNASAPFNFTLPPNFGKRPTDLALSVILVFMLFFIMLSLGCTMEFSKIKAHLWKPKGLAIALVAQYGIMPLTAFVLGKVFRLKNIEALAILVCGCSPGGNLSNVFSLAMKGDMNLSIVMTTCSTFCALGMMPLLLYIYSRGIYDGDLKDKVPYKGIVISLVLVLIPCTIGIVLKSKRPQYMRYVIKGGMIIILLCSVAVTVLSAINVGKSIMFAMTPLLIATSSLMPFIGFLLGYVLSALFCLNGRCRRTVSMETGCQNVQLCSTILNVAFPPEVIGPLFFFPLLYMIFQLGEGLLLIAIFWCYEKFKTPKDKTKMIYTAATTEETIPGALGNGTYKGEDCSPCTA

rat Ntcp = target: T6, rat Ntcp (Rattus norvegicus, UniProt P26435); experiment: Cellular transport assay, HEK-293 cells expressing rat Ntcp; conditions: positive substrate 20 μM, 10 min; rat Ntcp
T6 sequence (P26435 1-362): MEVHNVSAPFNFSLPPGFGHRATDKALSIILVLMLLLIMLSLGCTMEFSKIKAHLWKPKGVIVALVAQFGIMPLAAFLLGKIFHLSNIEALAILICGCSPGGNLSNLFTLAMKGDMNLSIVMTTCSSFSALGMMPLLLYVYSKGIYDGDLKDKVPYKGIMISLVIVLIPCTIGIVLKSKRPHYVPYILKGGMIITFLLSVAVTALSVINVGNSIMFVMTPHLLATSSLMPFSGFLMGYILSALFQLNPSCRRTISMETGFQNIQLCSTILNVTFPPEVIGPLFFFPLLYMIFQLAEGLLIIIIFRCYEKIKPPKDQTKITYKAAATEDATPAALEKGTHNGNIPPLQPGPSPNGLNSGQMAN

human BSEP = human BSEP (Homo sapiens, UniProt O95342); experiment: Vesicular transport assay, inside-out membrane vesicles expressing human BSEP; conditions: positive substrate 20 μM, 10 min; human BSEP
human BSEP, sequence (O95342 whole entry): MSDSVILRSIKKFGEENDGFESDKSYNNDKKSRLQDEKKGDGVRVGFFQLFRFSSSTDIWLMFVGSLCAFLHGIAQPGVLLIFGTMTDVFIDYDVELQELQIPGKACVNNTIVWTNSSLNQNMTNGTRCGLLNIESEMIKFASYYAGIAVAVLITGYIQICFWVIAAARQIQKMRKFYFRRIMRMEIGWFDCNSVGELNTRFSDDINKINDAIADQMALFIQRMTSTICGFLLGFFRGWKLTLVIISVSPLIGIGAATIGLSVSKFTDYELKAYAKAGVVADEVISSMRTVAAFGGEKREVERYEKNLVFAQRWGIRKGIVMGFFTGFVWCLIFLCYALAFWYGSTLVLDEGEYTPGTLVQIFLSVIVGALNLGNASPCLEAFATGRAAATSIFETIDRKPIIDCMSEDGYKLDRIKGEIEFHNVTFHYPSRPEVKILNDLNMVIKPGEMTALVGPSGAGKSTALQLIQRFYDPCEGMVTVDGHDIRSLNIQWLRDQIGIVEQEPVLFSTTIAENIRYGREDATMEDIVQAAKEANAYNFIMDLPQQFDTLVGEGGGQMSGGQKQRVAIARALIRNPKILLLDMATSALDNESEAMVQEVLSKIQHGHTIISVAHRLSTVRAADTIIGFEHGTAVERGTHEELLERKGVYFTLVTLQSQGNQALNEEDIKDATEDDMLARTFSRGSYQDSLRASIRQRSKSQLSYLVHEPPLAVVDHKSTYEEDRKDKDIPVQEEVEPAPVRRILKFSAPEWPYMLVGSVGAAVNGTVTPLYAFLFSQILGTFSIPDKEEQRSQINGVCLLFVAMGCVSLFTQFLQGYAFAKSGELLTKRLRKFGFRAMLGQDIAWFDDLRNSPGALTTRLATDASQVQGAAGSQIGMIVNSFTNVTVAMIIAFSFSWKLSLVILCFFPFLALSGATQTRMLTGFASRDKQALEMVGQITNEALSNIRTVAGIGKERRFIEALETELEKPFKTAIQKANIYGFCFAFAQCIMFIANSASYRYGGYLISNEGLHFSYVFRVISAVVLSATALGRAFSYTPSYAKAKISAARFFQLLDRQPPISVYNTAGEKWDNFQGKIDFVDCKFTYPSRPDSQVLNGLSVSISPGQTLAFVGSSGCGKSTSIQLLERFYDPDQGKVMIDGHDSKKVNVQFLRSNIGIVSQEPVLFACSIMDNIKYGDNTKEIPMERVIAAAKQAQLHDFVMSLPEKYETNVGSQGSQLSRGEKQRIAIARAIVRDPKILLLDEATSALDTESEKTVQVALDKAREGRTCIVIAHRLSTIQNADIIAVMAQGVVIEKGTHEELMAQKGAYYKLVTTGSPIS
Description: (§4) Inside-out membrane vesicles (5 mg protein/mL), prepared from insect cells expressing human multidrug resistance-associated protein (MRP) 2, MRP3, MRP4, breast cancer resistance protein (BCRP), bile salt export pump (BSEP), and multidrug resistance protein (MDR) one and rat Mrp2, Mrp4, Bcrp, and Bsep, and vesicles (5 mg protein/mL; prepared from the insect cells expressing no ABC transporter; serving as negative control) were obtained from Genomembrane (Kanazawa, Japan).
(§5) The test Danshen compounds at 100 µM final concentration were separately incubated with the membrane vesicles for 10 min. Buffer C (50 mM MOPS-tris, 70 mM KCl, 7.5 mM MgCl2, pH 7.0) was used for preincubation and incubation, while buffer D (40 mM MOPS-tris, 70 mM KCl, pH 7.0) was used for vesicle washing. The transport rate (pmol/mg protein/min) of the test Danshen compound was calculated using Equation (2): Transport=(CV×VV)/T/WV (2) where C V, V V, T, and W V represent concentration of the compound in vesicular lysates supernatant (μM), volume of the lysates (μL), incubation time (10 min), and amount of vesicle protein amount per well (0.05 mg), respectively. Differential transport of the test Danshen compound between ATP-containing vesicles and AMP-containing vesicles was defined as net transport ratio (TransportATP/TransportAMP ratio). […] All the incubation samples were analyzed by liquid chromatography/mass spectrometry.

rat Bsep = target: T7, rat Bsep (Rattus norvegicus, UniProt O70127); experiment: Vesicular transport assay, inside-out membrane vesicles expressing rat Bsep; conditions: positive substrate 20 μM, 10 min; rat Bsep
T7 sequence (O70127 1-1321): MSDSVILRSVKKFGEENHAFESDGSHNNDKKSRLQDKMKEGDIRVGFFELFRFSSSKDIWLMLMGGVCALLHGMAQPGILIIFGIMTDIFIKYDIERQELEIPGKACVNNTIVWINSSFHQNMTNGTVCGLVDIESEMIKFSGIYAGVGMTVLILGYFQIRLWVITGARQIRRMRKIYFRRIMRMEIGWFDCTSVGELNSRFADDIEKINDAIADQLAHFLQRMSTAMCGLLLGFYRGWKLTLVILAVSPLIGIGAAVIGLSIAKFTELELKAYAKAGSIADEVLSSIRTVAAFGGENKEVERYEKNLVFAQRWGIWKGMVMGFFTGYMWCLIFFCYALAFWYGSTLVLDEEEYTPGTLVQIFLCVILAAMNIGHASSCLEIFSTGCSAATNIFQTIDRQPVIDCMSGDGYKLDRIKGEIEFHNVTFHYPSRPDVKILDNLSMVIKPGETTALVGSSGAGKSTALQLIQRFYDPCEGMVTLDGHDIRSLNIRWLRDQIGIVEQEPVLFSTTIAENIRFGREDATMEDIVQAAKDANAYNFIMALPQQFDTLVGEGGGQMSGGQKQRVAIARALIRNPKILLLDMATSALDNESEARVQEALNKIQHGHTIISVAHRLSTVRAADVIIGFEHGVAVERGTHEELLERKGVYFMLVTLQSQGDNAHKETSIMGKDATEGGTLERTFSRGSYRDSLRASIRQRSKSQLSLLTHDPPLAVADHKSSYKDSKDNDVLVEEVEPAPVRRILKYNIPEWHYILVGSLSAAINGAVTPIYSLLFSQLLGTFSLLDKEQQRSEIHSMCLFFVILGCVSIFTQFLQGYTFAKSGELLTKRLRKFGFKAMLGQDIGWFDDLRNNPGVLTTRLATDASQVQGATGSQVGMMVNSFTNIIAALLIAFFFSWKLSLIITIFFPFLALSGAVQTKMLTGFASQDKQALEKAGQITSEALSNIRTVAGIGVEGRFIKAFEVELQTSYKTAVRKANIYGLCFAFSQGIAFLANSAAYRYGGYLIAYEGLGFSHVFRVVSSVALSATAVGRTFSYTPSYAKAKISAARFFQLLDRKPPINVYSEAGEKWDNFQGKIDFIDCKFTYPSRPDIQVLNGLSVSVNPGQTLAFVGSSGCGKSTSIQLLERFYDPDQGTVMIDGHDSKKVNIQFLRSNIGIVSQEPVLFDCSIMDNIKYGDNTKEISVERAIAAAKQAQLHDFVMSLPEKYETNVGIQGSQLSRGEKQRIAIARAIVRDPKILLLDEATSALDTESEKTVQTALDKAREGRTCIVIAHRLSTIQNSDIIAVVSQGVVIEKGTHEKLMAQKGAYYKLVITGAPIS
Description: as §4, §5

Row | SMILES | TransportTC/TransportMC ratio, positive substrate (human OATP2B1) | TransportTC/TransportMC ratio, positive substrate (human OAT3) | TransportTC/TransportMC ratio, positive substrate (human OAT4) | TransportTC/TransportMC ratio, positive substrate (rat Oat3) | TransportTC/TransportMC ratio, positive substrate (human NTCP) | TransportTC/TransportMC ratio, positive substrate (rat Ntcp) | TransportATP/TransportAMP ratio, positive substrate (human BSEP) | TransportATP/TransportAMP ratio, positive substrate (rat Bsep)
1 | C[C@]12CC[C@@H]3c4ccc(OS(=O)(=O)O)cc4CC[C@H]3[C@@H]1CCC2=O [E1S, estrone-3-sulfate, reference compound] | 41.1 ± 1.5 (E1S) | 10.2 ± 1.2 (E1S) | 7.69 ± 1.74 (E1S) | 21.4 ± 6.8 (E1S) |  |  |  | 
2 | C[C@H](CCC(=O)NCCS(=O)(=O)O)[C@H]1CC[C@H]2[C@@H]3[C@H](O)C[C@@H]4C[C@H](O)CC[C@]4(C)[C@H]3C[C@H](O)[C@]12C [TCA, taurocholic acid, reference compound] |  |  |  |  | 144 ± 30 (TCA) | 134 ± 15 (TCA) | 4.03 ± 0.89 (TCA) | 5.14 ± 0.88 (TCA)
